Measurements reported in BindingDB's records for doi:10.1021/jm970836l (Hokuriku University, 1998).

Target: coffee bean alpha-galactosidase (Coffea arabica) (UniProt Q42656)
Assay: Inhibitory activity measured against alpha-galactosidase of coffee bean by colorimetric assay using the p-nitrophenyl glycoside method

Sequence of coffee bean alpha-galactosidase (Coffea arabica) (Q42656 whole entry, looked up): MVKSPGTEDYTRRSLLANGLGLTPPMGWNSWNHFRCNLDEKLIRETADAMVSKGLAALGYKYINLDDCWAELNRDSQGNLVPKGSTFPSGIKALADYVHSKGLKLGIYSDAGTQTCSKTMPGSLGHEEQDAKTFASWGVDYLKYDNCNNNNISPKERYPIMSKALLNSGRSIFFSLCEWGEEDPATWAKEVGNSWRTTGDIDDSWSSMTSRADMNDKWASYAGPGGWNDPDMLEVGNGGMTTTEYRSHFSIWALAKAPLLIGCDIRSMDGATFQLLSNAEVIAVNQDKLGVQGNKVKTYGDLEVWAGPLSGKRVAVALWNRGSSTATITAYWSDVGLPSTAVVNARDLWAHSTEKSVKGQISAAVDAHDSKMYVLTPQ

Row | IC50 [µM] | SMILES
1 | 80 | OC[C@H]1N[C@H](CO)[C@H](O)C(O)[C@H]1O (some centres not stated)
2 | 6.4 | OCC1NC(CO)[C@@H](O)C(O)C1O (stereo partly drawn) [(R)-2,6-Bis-hydroxymethyl-piperidine-3,4,5-triol]
